Source: patent US11440913B2, “Aminoimidazopyridazines as kinase inhibitors” (BRISTOL-MYERS SQUIBB COMPANY, priority 2017, dated 2022)
Where a name gives a salt, the structure may show the parent alone. Read-outs that look alike come from different tables or passages of the source.

How the values were obtained:
[1] = target: His-GST-TVMV-hRIPK1(1-324) (Homo sapiens (Human), UniProt Q13546); experiment: RIPK1 HTRF Binding Assay; details: HTRF binding, 1 h at rt; read-out: RIPK1 (IC50)
Outline: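 HTRF probe-displacement binding: 1 nM His-GST-TVMV-hRIPK1(1-324) (baculovirus construct), 90.6 nM probe, 0.2 nM anti-GST-Tb in 20 mM HEPES, 10 mM MgCl2, 0.015% Brij-35, 4 mM DTT, 0.05 mg/mL BSA. Incubated 1 h at rt; FRET 520/495 nm ratio, inhibition relative to DMSO-only wells.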

[2] = test system: MLKL phosphorylation in HT29-L23 human colorectal adenocarcinoma cells; experiment: MLKL Phosphorylation High-Content Assay; format: cell-based; details: 6 h, necroptosis induced with TNFα, SMAC mimetic and Z-VAD, read-out: pMLKL (IC50)
Outline: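 HT29-L23 cells pretreated 30 min at 37 °C with compound (6.25 to 0.106 μM final), then necroptosis induced with TNFα 35 ng/mL, SMAC mimetic 700 nM and Z-VAD 140 nM for 6 h. Fixed cells immunostained for MLKL pS358 and imaged; IC50 and Ymax from 4-parameter logistic fit.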

Chain of His-GST-TVMV-hRIPK1(1-324) (Q13546 1-324): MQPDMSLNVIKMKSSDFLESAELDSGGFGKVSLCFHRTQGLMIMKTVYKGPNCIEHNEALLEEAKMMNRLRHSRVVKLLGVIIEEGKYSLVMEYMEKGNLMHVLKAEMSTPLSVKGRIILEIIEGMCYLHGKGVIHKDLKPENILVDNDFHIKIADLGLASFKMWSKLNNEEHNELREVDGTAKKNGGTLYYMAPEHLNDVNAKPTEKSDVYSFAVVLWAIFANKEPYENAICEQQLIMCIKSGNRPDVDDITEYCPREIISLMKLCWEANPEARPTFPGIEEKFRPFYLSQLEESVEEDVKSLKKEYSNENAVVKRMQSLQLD

Structure (SMILES): COc1ncc(-c2ccc3nc(NC(C)=O)cn3n2)cc1C(=O)NCc1cc(F)cc(F)c1OC1CC(C)OC(C)C1 (centres unmarked) [Example 103, N-({2-[(2,6-dimethyloxan-4-yl)oxy]-3,5-difluorophenyl}methyl)-5-{2-acetamidoimidazo[1,2-b]pyridazin-6-yl}-2-methoxypyridine-3-carboxamide]
- IC50 [1]: 51 nM
- IC50 ([2]; Homo sapiens): 188 nM

Structure (SMILES): [2H]C([2H])([2H])Oc1nc(C)c(-c2ccc3nc(NC(C)=O)cn3n2)cc1C(=O)NCc1ccc(F)c(F)c1OCC1CC1 [Example 176, N-{[2-(cyclopropylmethoxy)-3,4-difluorophenyl]methyl}-5-{2-acetamidoimidazo[1,2-b]pyridazin-6-yl}-2-(deutero)methoxy-6-methylpyridine-3-carboxamide]
- IC50 [1]: 10 nM
- IC50 ([2]; Homo sapiens): 12 nM

Structure (SMILES): CC(=O)Nc1cn2nc(-c3cc(C(=O)NCc4cc(OC(F)(F)F)ccc4F)cnc3C)ccc2n1 [Example 234, 5-{2-acetamidoimidazo[1,2-b]pyridazin-6-yl}-N-{[2-fluoro-5-(trifluoromethoxy)phenyl]methyl}-6-methylpyridine-3-carboxamide]
- IC50 [1]: 46 nM
- IC50 ([2]; Homo sapiens): 71 nM

Structure (SMILES): COc1ncc(-c2ccc3nc(NC(C)=O)cn3n2)cc1C(=O)NCc1cc(F)cc(F)c1OCC(C)C [Example 116, N-{[3,5-difluoro-2-(2-methylpropoxy)phenyl]methyl}-5-{2-acetamidoimidazo[1,2-b]pyridazin-6-yl}-2-methoxypyridine-3-carboxamide]
- IC50 [1]: 10 nM
- IC50 ([2]; Homo sapiens): 3 nM

Structure (SMILES): [2H]C([2H])(NC(=O)c1cc(-c2ccc3nc(NC(C)=O)cn3n2)cnc1OC)c1cc(F)cc(F)c1OC1CCOCC1 [Example 153, 5-(2-acetamidoimidazo[1,2-b]pyridazin-6-yl)-N-((3,5-difluoro-2-((tetrahydro-2H-pyran-4-yl)oxy)phenyl)methyl-d2)-2-methoxynicotinamide]
- IC50 [1]: 1 nM
- IC50 ([2]; Homo sapiens): 1 nM

Structure (SMILES): CC(=O)Nc1cn2nc(-c3ccc(C)c(C(=O)NCc4ccc(F)c(F)c4C(=O)N4CCC(F)(F)C4)c3F)ccc2n1 [Example 411, N-{[2-(3,3-difluoropyrrolidine-1-carbonyl)-3,4-difluorophenyl]methyl}-3-{2-acetamidoimidazo [1,2-b]pyridazin-6-yl}-2-fluoro-6-methylbenzamide]
- IC50 [1]: 9 nM
- IC50 ([2]; Homo sapiens): 25 nM

Structure (SMILES): COc1ncc(-c2ccc3nc(NC(C)=O)cn3n2)cc1C(=O)NCc1cccc(C(F)(F)F)c1 [Example 110, 5-{2-acetamidoimidazo[1,2-b]pyridazin-6-yl}-2-methoxy-N-{[3-(trifluoromethyl)phen-yl](deutero)methyl}pyridine-3-carboxamide]
- IC50 [1]: 27 nM
- IC50 [2]: 113 nM

Structure (SMILES): [2H]C([2H])([2H])Oc1ncc(-c2ccc3nc(NC(C)=O)cn3n2)cc1C(=O)NC(C)c1ccccc1OC(F)(F)F (centres unmarked) [Example 54, 5-{2-acetamidoimidazo[1,2-b]pyridazin-6-yl}-2-(D3)methoxy-N-{1-[2-(trifluoromethoxy)phenyl]eth-yl}pyridine-3-carboxamide]
- IC50 [1]: 5 nM
- IC50 ([2]; Homo sapiens): 24 nM

Structure (SMILES): CC(=O)Nc1cn2nc(-c3ccc(C)c(C(=O)NCc4cc(C(=O)N5CC(F)(F)C5)ccc4F)c3)ccc2n1 [Example 404, N-{[5-(3,3-difluoroazetidine-1-carbonyl)-2-fluorophenyl]methyl}-5-{2-acetamidoimidazo [1,2-b]pyridazin-6-yl}-2-methylbenzamide]
- IC50 [1]: 52 nM
- IC50 ([2]; Homo sapiens): 259 nM

Structure (SMILES): CC(=O)Nc1cn2nc(-c3cnc(C)c(C(=O)NCc4cc(-c5cnn(C)c5)ccc4F)c3)ccc2n1 [Example 352, 5-{2-acetamidoimidazo[1,2-b]pyridazin-6-yl}-N-{[2-fluoro-5-(1-methyl-1H-pyrazol-4-yl)phenyl]methyl}-2-methylpyridine-3-carboxamide]
- IC50 [1]: 125 nM
- IC50 ([2]; Homo sapiens): 394 nM

Structure (SMILES): COc1ncc(-c2ccc3nc(NC(C)=O)cn3n2)cc1C(=O)NCc1ccccc1OCC1CCCC1 [Example 164, N-{[2-(cyclopentylmethoxy)phenyl]methyl}-5-{2-acetamidoimidazo[1,2-b]pyridazin-6-yl}-2-methoxypyridine-3-carboxamide]
- IC50 [1]: 10 nM
- IC50 ([2]; Homo sapiens): 32 nM

Structure (SMILES): Cc1ncc(-c2ccc3nc(NC(=O)CN4CCC(F)(F)CC4)cn3n2)cc1C(=O)N[C@H](C)c1cc(OC(F)(F)F)ccc1F [Example 334, 5-{2-[2-(4,4-difluoropiperidin-1-yl)acetamido]-imidazo[1,2-b]pyridazin-6-yl}-N-[(1R)-1-[2-fluoro-5-(trifluoromethoxy)-phenyl]ethyl]-2-methylpyridine-3-carboxamide]
- IC50 [1]: 15 nM
- IC50 ([2]; Homo sapiens): 10 nM

Structure (SMILES): Cc1ncc(-c2ccc3nc(NC(=O)CN4CCC(F)(F)CC4)cn3n2)cc1C(=O)NCC[C@@H](O)c1ccc(Cl)cc1 [Example 343, N-[(3R)-3-(4-chlorophenyl)-3-hydroxypropyl]-5-{2-[2-(4,4-difluoropiperidin-1-yl)acetamido]imidazo[1,2-b]pyridazin-6-yl}-2-methylpyridine-3-carboxamide]
- IC50 [1]: 9 nM
- IC50 ([2]; Homo sapiens): 24 nM

Structure (SMILES): COc1nc(C)c(-c2ccc3nc(NC(C)=O)cn3n2)cc1C(=O)NCc1c(F)cc(F)cc1OCC1CC1 [Example 298, N-{[2-(cyclopropylmethoxy)-4,6-difluorophenyl]methyl}-5-{2-acetamidoimidazo[1,2-b]pyridazin-6-yl}-2-methoxy-6-methylpyridine-3-carboxamide]
- IC50 [1]: 43 nM
- IC50 ([2]; Homo sapiens): 79 nM

Structure (SMILES): COc1ncc(-c2ccc3nc(NC(C)=O)cn3n2)cc1C(=O)NCc1ncccc1OC(C)C1CC1 (centres unmarked) [Example 136, N-{[3-(1-cyclopropylethoxy)pyridin-2-yl]methyl}-5-{2-acetamidoimidazo[1,2-b]pyridazin-6-yl}-2-methoxypyridine-3-carboxamide]
- IC50 [1]: 17 nM
- IC50 ([2]; Homo sapiens): 100 nM

Structure (SMILES): CC(=O)Nc1cn2nc(-c3ccc(C)c(C(=O)NC[C@H]4C[C@@H]4c4ccc(F)cc4)c3)ccc2n1 [Example 401, 5-{2-acetamidoimidazo [1,2-b]pyridazin-6-yl}-N-{[(1S, 2S)-2-(4-fluorophenyl)cyclopropyl]methyl}-2-methylbenzamide]
- IC50 [1]: 105 nM
- IC50 ([2]; Homo sapiens): 77 nM

Structure (SMILES): [2H]C([2H])([2H])Oc1ncc(-c2ccc3nc(NC(C)=O)cn3n2)cc1C(=O)NCc1cc(OCC2CC2)ccc1F [Example 56, N-{[5-(cyclopropylmethoxy)-2-fluorophenyl]methyl}-5-{2-acetamidoimidazo[1,2-b]pyri-dazin-6-yl}-2-(D3)methoxypyridine-3-carboxamide, TFA]
- IC50 [1]: 13 nM
- IC50 ([2]; Homo sapiens): 67 nM

Structure (SMILES): CC(=O)Nc1cn2nc(-c3cnc(C)c(C(=O)NCc4cc(OCC5CC5)ccc4F)c3)ccc2n1 [Example 215, N-{[5-(cyclopropylmethoxy)-2-fluorophenyl]methyl}-5-{2-acetamidoimidazo[1,2-b]pyridazin-6-yl}-2-methylpyridine-3-carboxamide]
- IC50 [1]: 8 nM
- IC50 ([2]; Homo sapiens): 22 nM

Structure (SMILES): CC(=O)Nc1cn2nc(-c3cnc(Cl)c(C(=O)NCc4cc(F)cc(F)c4OC(C)C4CCC4)c3)ccc2n1 (centres unmarked) [Example 273, 2-chloro-N-{[2-(1-cyclobutylethoxy)-3,5-difluorophenyl]methyl}-5-{2-acetamidoimidazo[1,2-b]pyridazin-6-yl}pyridine-3-carboxamide, TFA]
- IC50 [1]: 4 nM
- IC50 ([2]; Homo sapiens): 43 nM

Structure (SMILES): [2H]C([2H])(NC(=O)c1cc(-c2ccc3nc(NC(=O)CO)cn3n2)c(C)nc1C)c1cc(C(F)(F)F)ccc1F [Example 93, N-{[2-fluoro-5-(trifluoro-methyl)phenyl](deutero)methyl}-5-[2-(2-hydroxy-acetamido)imidazo[1,2-b]pyridazin-6-yl]-2,6-dimethylpyridine-3-carboxamide]
- IC50 [1]: 50 nM
- IC50 ([2]; Homo sapiens): 129 nM

Structure (SMILES): CC(=O)Nc1cn2nc(-c3cncc(C(=O)NCc4ncccc4OC4CCCC4)c3)ccc2n1 [Example 241, N-{[3-(cyclopentyloxy)pyridin-2-yl]methyl}-5-{2-acetamidoimidazo [1,2-b]pyridazin-6-yl}pyridine-3-carboxamide]
- IC50 [1]: 35 nM
- IC50 ([2]; Homo sapiens): 277 nM

Structure (SMILES): COc1ncc(-c2ccc3nc(NC(C)=O)cn3n2)cc1C(=O)NCc1ccccc1OCC1CCC1 [Example 155, N-{[2-(cyclobutylmethoxy)phenyl]methyl}-5-{2-acetamidoimidazo[1,2-b]pyridazin-6-yl}-2-methoxypyridine-3-carboxamide]
- IC50 [1]: 2 nM
- IC50 ([2]; Homo sapiens): 6 nM

Structure (SMILES): CC(=O)Nc1cn2nc(-c3cc(C(=O)NCc4ncccc4OCC(F)(F)F)c(C)nc3C)ccc2n1 [Example 65, 5-{2-acetamidoimidazo[1,2-b]pyridazin-6-yl}-2,6-dimethyl-N-{[3-(2,2,2-trifluoroethoxy)pyridin-2-yl]methyl}pyridine-3-carboxamide]
- IC50 [1]: 44 nM
- IC50 ([2]; Homo sapiens): 374 nM

Structure (SMILES): CC(=O)Nc1cn2nc(-c3cnc(C)c(C(=O)NCc4cc(F)ccc4OC4CCCC4)c3)ccc2n1 [Example 222, N-{[2-(cyclopentyloxy)-5-fluorophenyl]methyl}-5-{2-acetamidoimidazo[1,2-b]pyridazin-6-yl}-2-methylpyridine-3-carboxamide]
- IC50 [1]: 3 nM
- IC50 ([2]; Homo sapiens): 2 nM

Structure (SMILES): CC(=O)Nc1cn2nc(-c3cc(C(=O)NCc4cc(F)cc(F)c4OC4CCCOC4)c(C)nc3C)ccc2n1 (centres unmarked) [Example 59, N-{[3,5-difluoro-2-(oxan-3-yloxy)phenyl]methyl}-5-{2-acetamidoimidazo[1,2-b]pyridazin-6-yl}-2,6-dimethylpyridine-3-carboxamide]
- IC50 [1]: 12 nM
- IC50 ([2]; Homo sapiens): 17 nM
